# Read-outs that look alike come from different tables or passages of the source.
# Tested on: glioma
# Type: in vivo, human
# Settings: for T/NTmax (maximum target to non-target ratio): brain PET/CT; for SUVmax in glioma: brain PET/CT before surgery
substance,measurement,setting,value
^18F-FDG,"T/NTmax in glioma, mean ± SD",eight glioma patients,0.86 ± 0.41
same,"SUVmax in glioma tissues, range","eight glioma patients, range",3.50-12.27
same,"T/NTmax in glioma, range","eight glioma patients, range",0.35-1.59
same,T/NTmax (maximum target to non-target ratio),"patient No. 1, WHO grade II",0.72
same,SUVmax in glioma,"patient No. 1, WHO grade II",7.40
same,T/NTmax (maximum target to non-target ratio),"patient No. 2, WHO grade II",0.35
same,SUVmax in glioma,"patient No. 2, WHO grade II",3.50
same,T/NTmax (maximum target to non-target ratio),"patient No. 3, WHO grade III",0.61
same,SUVmax in glioma,"patient No. 3, WHO grade III",7.27
same,T/NTmax (maximum target to non-target ratio),"patient No. 4, WHO grade IV",0.80
same,SUVmax in glioma,"patient No. 4, WHO grade IV",12.27
same,T/NTmax (maximum target to non-target ratio),"patient No. 5, WHO grade IV",0.72
same,SUVmax in glioma,"patient No. 5, WHO grade IV",5.76
same,T/NTmax (maximum target to non-target ratio),"patient No. 6, WHO grade IV",0.78
same,SUVmax in glioma,"patient No. 6, WHO grade IV",9.87
same,SUVmax in glioma,"patient No. 7, WHO grade IV",8.47
same,T/NTmax (maximum target to non-target ratio),"patient No. 8, WHO grade IV",1.59
same,SUVmax in glioma,"patient No. 8, WHO grade IV",4.20
